Results as given in patent publication US20240100000A1, “APPLICATION OF ADRB1 ACTIVE INHIBITOR IN PREPARING PREPARATION OR AS PREPARATION FOR TREATING PSORIASIS” (priority 2022, published 2024).
Structures can show the parent of a compound that is named as a salt.

Assays:
IMQ-induced mice [1] = experiment: IMQ-induced psoriasis mouse model smeared with β1-AR antagonist/agonist; type: in vivo
Procedure: In the embodiment of the disclosure, the construction of psoriasis mouse model smeared with β1-AR antagonist/agonist is as follows. 5 μL of β1-AR antagonist/agonist storage solution (40 mg/mL, DMSO solvent) is taken and dissolved in 95 μL of 20% sulfobutylether-beta-cyclodextrin derivative (SBE-β-CD) solution (diluted with sterile sodium chloride) to prepare 2 mg/mL antagonist/agonist diluent. Wild-type mice aged 7-8 weeks are selected to shave their back hair, and the exposed skin area is 2 cm×2 cm. The mice are applied with 100 μL of the antagonist/agonist diluent, and controls are smeared with a smearing control agent (i.e., 5 μL DMSO+95 μL 20% SBE-β-CD solution).

primary γδT cells = experiment: IL17A/F transcription in primary γδT cells stimulated by IL-23 and ACE/DOB; type: cell-based, mice; details: primary γδT cells activated by IL-23; DOB at high concentration
Text: (§1) In the embodiment of the disclosure, in order to study how to ADRB1 regulates the inflammatory response of γδT cells, high-purity primary γδT cells are isolated from the spleen of mice by magnetic bead sorting kit, and stimulated with ADRB1 agonist and antagonist respectively.

NF-κB (P65) = experiment: Activation of NF-κB, AKT, p38, ERK in IL-23-activated primary γδT cells; type: cell-based, mice
Text: as §1

NF-κB = NF-κB phosphorylation in skin of IMQ-induced psoriatic mice; type: in vivo
Dendritic cells (DCs) = details: cited from earlier work; for IL-17A induced by stimulated DCs / production of IFN-γ by CD4 cells: DCs in mice stimulated
[2] = Neurotransmitter content (ELISA) and TH phosphorylation (western blot) in IMQ-treated mice; type: in vivo
β1-AR = experiment: Proportion of β1-AR+ T cells in skin of IMQ-treated mice (immunofluorescence and flow cytometry); type: in vivo
Text: In the embodiment of the disclosure, immunofluorescence and flow cytometry are used to detect β1-AR is mainly expressed in IL-17A-producing γδT cells (also referred to as γδT-17 cells), as shown in FIG. 14.

[3] = test system: γδT-cell deficient mice (Tcrd−/−); experiment: DOB applied to skin of γδT-cell deficient mice (Tcrd−/−); type: in vivo
Text: Combined with the previous results, it is verified that NE in skin is mainly derived from skin sympathetic nerve and mediates the release IL-17 from γδT cells rather than αβT cells through NE-ADRB1 signaling pathway.

skin sympathetic nerve = experiment: Psoriasis model with skin sympathetic nerve ablation (intradermal 6-OHDA before IMQ); type: in vivo, mice; details: intradermal injection before IMQ treatment
Procedure: In the embodiment of the disclosure, the sympathectomy of local skin is as follows. […] of 6-hydroxydopamine (6-OHDA) are dissolved into 100 microliters (μL) of 0.1% ascorbic acid solution (diluted with 0.9% sterile sodium chloride) to prepare a fresh sympathetic nerve ablation solution. Wild-type mice aged 7-8 weeks are selected to shave their back hair, and the exposed skin area is 2 centimeters (cm)×2 cm. Then, the mice are intradermally injected with 100 μL fresh sympathetic nerve ablation solution, controls are injected with an injecting control agent (100 μL of 0.1% ascorbic acid solution).

[4] = test system: catecholaminergic neurons; details: intraperitoneal injection; cited from earlier work
IMQ-induced mice [5] = experiment: Psoriasis model with subcutaneous norepinephrine (NE) injection; type: in vivo; details: subcutaneous injection while IMQ is smeared
Procedure: In the embodiment of the disclosure, the construction of psoriasis model injected with norepinephrine (NE) is as follows. 6 μL of norepinephrine storage solution (10 millimoles per liter, abbreviated mM) is dissolved into 100 μL of 1 xphosphate-buffered saline (also referred to as 1×PBS, specifically prepared by a commonly used 1× phosphate buffered saline recipe), and […] NE diluent is prepared. Wild-type mice aged 7-8 weeks are selected to shave their back hair, and the exposed skin area is 2 cm×2 cm. Then, the mice are subcutaneously injected with 100 μL NE diluent, and controls are injected with an injecting control agent (6 μL dimethyl sulfoxide, abbreviated DMSO+100 μL PBS).

[6] = psoriatic mice treated with IMQ vs control mice treated with VAS

CCCC(=O)Nc1ccc(OCC(O)CNC(C)C)c(C(C)=O)c1 (stereo not drawn) [ACE, acebutolol hydrochloride]
proportion of γδT-17 cells in the skin (IMQ-induced mice [1]; IMQ-induced mice smeared with drug): reduced
transcription of IL17A (primary γδT cells): decreases
transcription of IL17F (primary γδT cells): decreases
NF-κB (P65) phosphorylation (NF-κB (P65)): inhibits
activation of P38, ERK, JNK and AKT (NF-κB (P65)): do not affect
activation of NF-κB (phosphorylation) in the skin (NF-κB): inhibition

CC(C)(C)NCC(O)c1ccc(O)c(CO)c1 (stereo not drawn) [salbutamol]
IL-23 production by DCs (Dendritic cells (DCs); DCs from treated mice): more
IL-17A induced by stimulated DCs (Dendritic cells (DCs)): induce
production of IFN-γ by CD4 cells (Dendritic cells (DCs)): reducing

CC(C)Cn1cnc2c(N)nc3ccccc3c21 [IMQ, imiquimod]
NE content in both skin and serum [2, 6]: higher
dopamine in skin and serum [2, 6]: no difference
TH phosphorylation in mouse skin ([2]; western blot): significant up-regulation
proportion of β1-AR+ cells in γδT cells in the skin (β1-AR; IMQ-treated vs VAS treated mice): significantly higher
proportion of β1-AR+ cells in αβT cells in the skin (β1-AR; VAS-treated vs IMQ-treated mice): no significant difference

CC(CCc1ccc(O)cc1)NCCc1ccc(O)c(O)c1 (stereo not drawn) [DOB, dobutamine hydrochloride]
IL-17A production of γδT cells in the skin (IMQ-induced mice [1]; IMQ-induced mice): promotes
back skin thickness, erythema, and scaling (IMQ-induced mice [1]; IMQ-induced mice smeared with drug, compared with the control group): increased
psoriasis-like phenotype (IMQ-induced mice [1]; IMQ-induced mice, smeared on back skin, 100 μL of 2 mg/mL diluent, 4 consecutive days, compared with the control group): aggravated
IL-17 producing capacity αβT cells [3]: no effect
promoting effects on the psoriasis-like phenotype and inflammatory infiltration ([3]; lack of γδT cells): offset
transcription of IL17A (primary γδT cells): increase
transcription of IL17F (primary γδT cells): increase
NF-κB (P65) phosphorylation (NF-κB (P65)): significantly increases
activation of P38, ERK, JNK and AKT (NF-κB (P65)): do not affect
activation of NF-κB (phosphorylation) in the skin (NF-κB): enhances

NCCc1cc(O)c(O)cc1O [6-OHDA, 6-hydroxydopamine]
IL-17A+γδT cells in sympathetic denervated skin (skin sympathetic nerve): decreased
NE in sympathetic denervated skin (skin sympathetic nerve): decrease
psoriasis-like phenotype of mice induced by IMQ (skin sympathetic nerve; removal of skin sympathetic nerve): reduces
IMQ induced ear swelling [4]: reduce
production of IL-17 [4]: does not affect

NC[C@H](O)c1ccc(O)c(O)c1 [NE, norepinephrine]
proportion of IL-17A+γδT cells in the skin of mice (IMQ-induced mice [5]): increases
psoriasis-like phenotype of mice induced by IMQ (IMQ-induced mice [5]; 4 days): exacerbates
IL-17A induced by stimulated DCs (Dendritic cells (DCs)): induce
production of IFN-γ by CD4 cells (Dendritic cells (DCs)): reducing
